From ChEMBL document CHEMBL4184112, “Spiroorthoester group-containing pregnane glycosides from the root barks of Periploca chrysantha and their inhibitory activities against the proliferation of B and T lymphocytes” (Bioorg Med Chem Lett, 2018)

How the values were obtained:
[1] = Selectivity index, ratio of CC50 for lymphocytes (unknown origin) to IC50 for ConA-induced T lymphocytes (unknown origin) proliferation; format: toxicity; details: read-out: Ratio CC50/IC50
[2] = Cytotoxicity against lymphocytes (unknown origin) assessed as decrease in cell viability; format: cell-based, Lymphocyte
T-cell = assay: Inhibition of ConA-induced T lymphocytes (unknown origin) proliferation; format: functional, cell-based
[3] = Selectivity index, ratio of CC50 for lymphocytes (unknown origin) to IC50 for LPS-induced B lymphocytes (unknown origin) proliferation; format: toxicity; details: read-out: Ratio CC50/IC50
[4] = Inhibition of LPS-induced B lymphocytes (unknown origin) proliferation; format: functional

SMILES	selectivity ratio [1]	CC50 [2] [µM]	IC50 (T-cell) [nM]	selectivity ratio [3]	IC50 [4] [nM]
CO[C@H]1[C@@H](O)[C@@H](C)O[C@@H](O[C@H]2[C@@H](OC)C[C@H](O[C@H]3[C@@H](OC)C[C@H](O[C@H]4[C@@H](O)C[C@H](O[C@@H]5[C@@H](C)O[C@@]6(C[C@H]5OC)OCO[C@@H]5C[C@H](O[C@@H](C)[C@@]7(O)CC[C@H]8[C@@H]9CC=C%10C[C@@H](O)CC[C@]%10(C)[C@H]9CC[C@@]87C)O[C@H](C)[C@H]5O6)O[C@@H]4C)O[C@@H]3C)O[C@@H]2C)[C@@H]1O	> 426	> 200	470	> 267	750
CO[C@H]1[C@@H](O)[C@@H](C)O[C@@H](O[C@H]2[C@@H](OC)C[C@H](O[C@H]3[C@H](O)C[C@H](O[C@H]4[C@@H](OC)C[C@H](O[C@@H]5[C@@H](C)O[C@@]6(C[C@H]5OC)OCO[C@@H]5C[C@H](O[C@@H](C)[C@@]7(O)CC[C@H]8[C@@H]9CC=C%10C[C@@H](O)CC[C@]%10(C)[C@H]9CC[C@@]87C)O[C@H](C)[C@H]5O6)O[C@@H]4C)O[C@@H]3C)O[C@@H]2C)[C@@H]1OC(C)=O	706	124	180	110	1130
CO[C@H]1C[C@H](O[C@H]2[C@@H](OC)C[C@H](O[C@H]3[C@H](O)C[C@H](O[C@H]4[C@@H](O)C[C@H](O[C@@H]5[C@@H](C)O[C@@]6(C[C@H]5OC)OCO[C@@H]5C[C@H](O[C@@H](C)[C@@]7(O)CC[C@H]8[C@@H]9CC=C%10C[C@@H](O)CC[C@]%10(C)[C@H]9CC[C@@]87C)O[C@H](C)[C@H]5O6)O[C@@H]4C)O[C@@H]3C)O[C@@H]2C)O[C@H](C)[C@H]1OC(C)=O	> 136	> 200	1470	> 145	1740
CO[C@H]1[C@@H](O)[C@@H](C)O[C@@H](O[C@H]2[C@@H](OC)C[C@H](O[C@H]3[C@@H](OC)C[C@H](O[C@H]4[C@@H](OC)C[C@H](O[C@@H]5[C@@H](C)O[C@@]6(C[C@H]5OC)OCO[C@@H]5C[C@H](O[C@@H](C)[C@@]7(O)CC[C@H]8[C@@H]9CC=C%10C[C@@H](OC=O)CC[C@]%10(C)[C@H]9CC[C@@]87C)O[C@H](C)[C@H]5O6)O[C@@H]4C)O[C@@H]3C)O[C@@H]2C)[C@@H]1O	347	146	420	170	860
